From patent publication US20230226081A1, “PHARMACEUTICAL FORMULATIONS OF ABIRATERONE ACETATE AND NIRAPARIB” (Janssen Pharmaceutica NV, priority 2020, published 2023)

Experiment: Particle size of the drug substances
Format: physicochemical

With `Cc1ccc(S(=O)(=O)O)cc1.NC(=O)c1cccc2cn(-c3ccc([C@@H]4CCCNC4)cc3)nc12` [niraparib tosylate monohydrate, 2-[4-[(3S)-piperidin-3-yl]phenyl]-2H-indazole-7-carboxamide tosylate monohydrate] as the molecule, how does the “d50 particle size of drug substance” value read?
The value was “around 50 μm”.

Which “d50 particle size of drug substance” value does the source give for `CC(=O)O[C@H]1CC[C@@]2(C)C(=CC[C@@H]3[C@@H]2CC[C@]2(C)C(c4cccnc4)=CC[C@@H]32)C1` [Abiraterone acetate] here?
Its value is 4-5 μm.
